Molecules are shown by their SMILES.

The experiment deals with adipocytes. The experiment in a line: Hydrolysis of adipocyte triglycerides: release of non-esterified fatty acids (NEFA) into the medium (lipolysis). Type of experiment: cell-based. The settings on record: for % activity vs Control: untreated control = 100.

Protocol: The adipocytes were isolated from an abdominal plasty and then incubated in the presence of collagenase, washed and taken up in test medium.
We then added the adipocyte suspension and the mixtures were incubated at 37° C. The NEFAs were assayed in the fractions of sub-adipocyte medium, after decantation. The assay was performed using an NEFA-C kit according to the manufacturer's instructions.
Two controls (a positive and a negative) of absence of interference of the product with the NEFA assay were performed.

Turning to `CC(C)NCC(O)c1ccc(O)c(O)c1` (centres unmarked) [Isoproterenol, isoproterenol], the NEFA reads like this: (Example 1, 1 μM) 472.3 µM; (Example 2, 1 μM) 613.3 µM. Also, the “% activity vs Control” value came out at 600% (Example 1, 1 μM) and 1849% (Example 2, 1 μM).

In the case of `Cn1c(=O)c2[nH]cnc2n(C)c1=O` [Theophylline, theophylline], for the setting “Example 1, 1 mM”, the NEFA is 496.3 µM and the “% activity vs Control” value is reported as 630%. Under “Example 2, 1 mM”, the NEFA was 626.3 µM and the “% activity vs Control” value turned out to be 1888%.
